Assay results from patent US20100144793A1, “NOVEL COMPOUNDS FOR THE TREATMENT OF DISEASES ASSOCIATED WITH AMYLOID OR AMYLOID-LIKE PROTEINS” (AC IMMUNE SA, priority 2006, published 2010).
Where a name gives a salt, the structure may show the parent alone. Read-outs that look alike come from different tables or passages of the source. One block for each compound: values may come before it.

What was measured:
[1] = target: T1, Aβ1-42 (Homo sapiens, UniProt P05067); experiment: Thioflavin T spectrofluorescence assay: inhibition of Aβ1-42 aggregation; type: biochemical
T1 construct: Aβ1-42 lyophilized powder (Bachem) was reconstituted in hexafluoroisopropanol (HFIP) to 1 mM; purchased Bachem
T1 sequence (P05067 672-713 limits assumed): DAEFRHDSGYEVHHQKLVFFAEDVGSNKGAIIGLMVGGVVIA
Method: The objective of this example was to evaluate the capacity of the compounds of the invention to inhibit the aggregation of (Aβ)1-42 peptide and to disaggregate pre-aggregated Aβ1-42 using a thioflavin T spectrofluorescence assay.
Aβ1-42 lyophilized powder (Bachem) was reconstituted in hexafluoroisopropanol (HFIP) to 1 mM. The peptide solution was sonicated for 15 min at room temperature, agitated overnight, and aliquots were placed into non-siliconized microcentrifuge tubes. The HFIP was then evaporated under a stream of argon. The resulting peptide film was dried under vacuum for 10 min, tightly sealed and stored at −80° C. until used.
Aβ1-42 peptide film was dissolved in DMSO to reach 400 μM. Assay solution in PBS was prepared in non-siliconized incubation tubes to reach the following concentrations: 330 μM small molecule, 33 μM Aβ1-42, 10 μM thioflavin T (ThT), and 12.8% DMSO. Therefore, the final molar ratio of small molecule to Aβ1-42 was 10:1. A positive control without a small molecule was prepared to measure maximum RFU. A negative control without Aβ1-42 was prepared for each small molecule. 3-aminopyrazole trimer (Trimer) was tested in all assays to ascertain reproducibility between independent experiments. The solutions were then incubated for 24 h at 37° C., and the spectrofluorescence (relative fluorescence units; RFU) read in six replicates in black 384-well assay plates (Perkin-Elmer) on a Perkin-Elmer FluoroCount spectrofluorometer. Inhibition of aggregation is expressed as mean % inhibition±1 standard deviation (SD) according to the following equation: […]

[2] = target: T2, Oregon Green labeled Aβ(1-42) (Homo sapiens, UniProt P05067); experiment: FCS-assay with 5 nM Oregon Green labeled Aβ-peptide (disaggregation of preformed aggregates); type: biochemical
T2 construct: DMSO-stock solutions of Oregon Green labeled Aβ(1-42) 1:1 with deionized water
T2 sequence (P05067 672-713 limits assumed): as above
Method: In order to analyse the disaggregating properties of the compounds, preformed aggregates were used, which were induced straight before the FCS-measurement by diluting low concentrated (500 nM) DMSO-stock solutions of Oregon Green labeled Aβ(1-42) 1:1 with deionized water. The final concentration of Oregon Green labeled Aβ-peptide was 5 nM in 1×PBS and 3% DMSO.
To improve the reproducibility of the measurements of the concentration dependencies all samples were prepared fourfold.

[3] = 10:1 small molecule to Aβ1-42 molar ratio
[4] = Table 4, 10:1 small molecule to Aβ1-42 molar ratio, 24 h at 37° C., mean ± SD of 2 independent experiments, read-out: % inhibition
[5] = read-out: Percentage of the “number of peaks” value compared to the control reaction without added ligand
[6] = read-out: Percentage of the “peaks × height“ value compared to the control reaction without added ligand
[7] = Table 3, 10:1 small molecule to Aβ1-42 molar ratio, 24 h at 37° C., mean ± SD of two independent experiments, read-out: % Inhibition

Structure (SMILES): Cc1ccc(-c2cc(NCCNc3cc(-c4ccc(Cl)cc4)[nH]n3)n[nH]2)cc1 (as salt: hydrochloride) [Compound 1ae, N-(5-(4-Chlorophenyl)-1H-pyrazol-3-yl)-N′-(5-p-tolyl-1H-pyrazol-3-yl)ethane-1,2-diamine bishydrochloride]
melting point: 182 °C

Structure (SMILES): Clc1ccc(-c2cc(NCCNc3cc(-c4cccs4)[nH]n3)n[nH]2)cc1 (as salt: hydrochloride) [Compound 1ah, N-(5-(4-Chlorophenyl)-1H-pyrazol-3-yl)-N′-(5-(thiophen-2-yl)-1H-pyrazol-3-yl)ethane-1,2-diamine bishydrochloride]
melting point: 139 °C

Structure (SMILES): FC(F)(F)c1cccc2[nH]nc(NCCNc3n[nH]c4cccc(C(F)(F)F)c34)c12 (as salt: hydrochloride) [Compound 1ai, N,N′-bis(4-(Trifluoromethyl)-1H-indazol-3-yl)ethane-1,2-diamine bishydrochloride]
melting point: 222 °C

Structure (SMILES): Fc1ccc(-c2cc(NCCNc3cc(-c4ccc(F)cc4)[nH]n3)n[nH]2)cc1 (as salt: hydrochloride) [Compound 1ak, N^1,N^2-bis(5-(4-Fluorophenyl)-1H-pyrazol-3-yl)ethane-1,2-diamine bishydrochloride]
melting point: 239 to 240 °C

inhibition at 330 µM ([1]; 24 h): 38.7 ± 5.2%
Structure (SMILES): Cc1cc(NC(=O)C(=O)Nc2cc(C)[nH]n2)n[nH]1 [Ampox, reference compound]

Structure (SMILES): Cc1cc(NCCNc2cc(C)[nH]n2)n[nH]1 [Compound 1a, N^1,N^2-bis(5-Methyl-1H-pyrazol-3-yl)ethane-1,2-diamine bishydrochloride]
inhibition at 330 µM ([1]; 24 h): 37.6 ± 0.7%

Structure (SMILES): FC(F)(F)c1cccc2[nH]nc(NCCNc3n[nH]c4cccc(C(F)(F)F)c34)c12 [Compound 1ai, N,N′-bis(4-(Trifluoromethyl)-1H-indazol-3-yl)ethane-1,2-diamine bishydrochloride]
inhibition of Aβ1-42 aggregation, in words [1, 3]: strong inhibition of aggregation
inhibition at 330 µM ([1]; 24 h): 50.4 ± 8.4%

inhibition of Aβ1-42 aggregation, in words [1, 3]: strong inhibition of aggregation
inhibition at 330 µM [1, 4]: 79.1 ± 4.8%
remaining activity at 0.2 µM ([2]; 200 nM compound, 5 nM labeled Aβ-peptide, read-out: Percentage of the “number of peaks” value compared to the control reaction without added ligand): 57.4%
remaining activity at 0.2 µM ([2]; 200 nM compound, 5 nM labeled Aβ-peptide, read-out: Percentage of the “peaks × height“ value compared to the control reaction without added ligand): 61.9%
Structure (SMILES): CN(C)c1ccc(-c2cc(NCCNc3cc(-c4ccc(N(C)C)cc4)[nH]n3)n[nH]2)cc1.Cl.Cl [Compound 1aj, N^1,N^2-bis(5-(4-(Dimethylamino)phenyl)-1H-pyrazol-3-yl)ethane-1,2-diamine bishydrochloride]

Structure (SMILES): Fc1ccc(-c2cc(NCCNc3cc(-c4ccc(F)cc4)[nH]n3)n[nH]2)cc1 [Compound 1ak, N^1,N^2-bis(5-(4-Fluorophenyl)-1H-pyrazol-3-yl)ethane-1,2-diamine bishydrochloride]
inhibition of Aβ1-42 aggregation, in words [1, 3]: strong inhibition of aggregation
inhibition at 330 µM ([1]; 24 h): 74 ± 5.9%
remaining activity at 0.1 µM [2, 5]: 57.4%
remaining activity at 0.2 µM [2, 5]: 51%
remaining activity at 0.1 µM [2, 6]: 43.3%
remaining activity at 0.2 µM [2, 6]: 44.8%

Structure (SMILES): c1ccc(-c2cc(NCCNc3cc(-c4ccccn4)[nH]n3)n[nH]2)nc1 [Compound 1al, N^1,N^2-bis(5-(Pyridin-2-yl)-1H-pyrazol-3-yl)ethane-1,2-diamine tetra-hydrochloride]
inhibition of Aβ1-42 aggregation, in words [1, 3]: strong inhibition of aggregation
inhibition at 330 µM ([1]; 24 h): 90.1 ± 4.7%
remaining activity at 0.2 µM [2, 5]: 57.9%
remaining activity at 0.2 µM [2, 6]: 48%

Structure (SMILES): Cc1ccc(-c2cc(NCC(C)(C)CNc3cc(-c4ccc(C)cc4)[nH]n3)n[nH]2)cc1 [Compound 1an, dihydrochloride]
inhibition of Aβ1-42 aggregation, in words [1, 3]: strong inhibition of aggregation
inhibition at 330 µM ([1]; 24 h): 55.9 ± 7.4%

Structure (SMILES): Cc1ccc(-c2cc(NCc3cccc(CNc4cc(-c5ccc(C)cc5)[nH]n4)c3)n[nH]2)cc1 [Compound 1ao, N,N′-(1,3-Phenylenebis(methylene))bis(5-p-tolyl-1H-pyrazol-3-amine) dihydrochloride]
inhibition at 330 µM ([1]; 24 h): 72.9 ± 0.7%

Structure (SMILES): Cc1ccc(-c2cc(NCc3ccc(CNc4cc(-c5ccc(C)cc5)[nH]n4)cc3)n[nH]2)cc1 [Compound 1ap, N,N′-(1,4-Phenylenebis(methylene))bis(5-p-tolyl-1H-pyrazol-3-amine) dihydrochloride]
inhibition of Aβ1-42 aggregation, in words [1, 3]: strong inhibition of aggregation
inhibition at 330 µM ([1]; 24 h): 66.2 ± 1.6%

Structure (SMILES): Cc1ccc(-c2cc(NCc3cccc(CNc4cc(-c5ccc(C)cc5)[nH]n4)n3)n[nH]2)cc1 [Compound 1aq, N,N′-(Pyridine-2,6-diylbis(methylene))bis(5-p-tolyl-1H-pyrazol-3-amine) trishydrochloride]
inhibition at 330 µM ([1]; 24 h): 82.9 ± 2.7%

inhibition at 330 µM [1, 7]: 9.7 ± 0.3%
Structure (SMILES): c1cc(NCCNc2cc[nH]n2)n[nH]1 [Compound 1b, N^1N^2-bis(1H-Pyrazol-3-yl)ethane-1,2-diamine bishydrochloride]

Structure (SMILES): Cc1[nH]nc(NCCNc2n[nH]c(C)c2-c2ccccc2)c1-c1ccccc1 [Compound 1c, N^1,N^2-bis(5-Methyl-4-phenyl-1H-pyrazol-3-yl)ethane-1,2-diamine bishydrochloride]
inhibition at 330 µM ([1]; 24 h): 52.7 ± 1.3%

inhibition of Aβ1-42 aggregation, in words [1, 3]: strong inhibition of aggregation
inhibition at 330 µM [1, 4]: 82.5 ± 5.8%
Structure (SMILES): c1ccc(-c2cc(NCCNc3cc(-c4ccccc4)[nH]n3)n[nH]2)cc1 [Compound 1e, N^1,N^2-bis(5-Phenyl)-1H-pyrazol-3-yl)ethane-1,2-diamine bishydrochloride]

Structure (SMILES): c1csc(-c2cc(NCCNc3cc(-c4cccs4)[nH]n3)n[nH]2)c1 [Compound 1h, N^1,N^2-bis(5-(2-Thienyl)-1H-pyrazol-3-yl)ethane-1,2-diamine bishydrochloride]
inhibition at 330 µM ([1]; 24 h): 69.9 ± 1.4%

Structure (SMILES): c1c(NCCNc2cc(C3CC3)[nH]n2)n[nH]c1C1CC1 [Compound 1i, N^1,N^2-bis(5-Cyclopropyl-1H-pyrazol-3-yl)ethane-1,2-diamine bishydrochloride]
inhibition at 330 µM ([1]; 24 h): 53.6 ± 27%

Structure (SMILES): CC(C)(C)c1cc(NCCNc2cc(C(C)(C)C)[nH]n2)n[nH]1 [Compound 1j, N^1,N^2-bis(5-tert-Butyl-1H-pyrazol-3-yl)ethane-1,2-diamine bishydrochloride]
inhibition at 330 µM ([1]; 24 h): 11.5 ± 2.9%

inhibition at 330 µM ([1]; Table 5, 10:1 small molecule to Aβ1-42 molar ratio, 24 h at 37° C., mean ± SD of two independent experiments, read-out: % inhibition): 40.4 ± 13%
Structure (SMILES): Cc1cc(NCCNc2n[nH]c(C)c2-c2ccc(Cl)cc2)n[nH]1 [Compound 1k, N,N′-(4-(4-Chlorophenyl)-5-methyl-1H-pyrazol-3-yl-N′-(5-methyl-1H-pyrazol-3-yl)ethane-1,2-diaminebishydrochloride]

Structure (SMILES): c1ccc(Cc2cc(NCCNc3cc(Cc4ccccc4)[nH]n3)n[nH]2)cc1 [Compound 1l, N^1,N^2-bis(5-Benzyl-1H-pyrazol-3-yl)ethane-1,2-diamine dihydrochloride]
inhibition at 330 µM ([1]; 24 h): 57.5 ± 7.6%

Structure (SMILES): c1coc(-c2cc(NCCNc3cc(-c4ccco4)[nH]n3)n[nH]2)c1 [Compound 1m, N^1,N^2-bis(5-(2-Furyl)-1H-pyrazol-3-yl)ethane-1,2-diamine bishydrochloride]
inhibition of Aβ1-42 aggregation, in words [1, 3]: strong inhibition of aggregation
inhibition at 330 µM ([1]; 24 h): 52.9 ± 2.7%

Structure (SMILES): c1ccc(Cc2c[nH]nc2NCCNc2n[nH]cc2Cc2ccccc2)cc1 [Compound 1q, N^1,N^2-bis(4-Benzyl-1H-pyrazol-3-yl)ethane-1,2-diamine dihydrochloride]
inhibition at 330 µM ([1]; 24 h): 59.2 ± 4.9%

Structure (SMILES): c1csc(-c2c[nH]nc2NCCNc2n[nH]cc2-c2cccs2)c1 [Compound 1r, N^1,N^2-bis(4-(Thiophen-2-yl)-1H-pyrazol-3-yl)ethane-1,2-diamine bishydrochloride]
inhibition at 330 µM ([1]; 24 h): 49.5 ± 0.8%

Structure (SMILES): Clc1ccc(-c2c[nH]nc2NCCNc2n[nH]cc2-c2ccc(Cl)cc2)cc1 [Compound 1s, N^1,N^2-bis(4-(4-Chlorophenyl)-1H-pyrazol-3-yl)ethane-1,2-diamine bishydrochloride]
inhibition at 330 µM ([1]; 24 h): 66.6 ± 4.1%

Structure (SMILES): COc1ccc(-c2c(NCCNc3n[nH]c(C)c3-c3ccc(OC)cc3)n[nH]c2C)cc1 [Compound 1t, N^1,N^2-bis(5-Methyl-4-methoxyphenyl)-1H-pyrazol-3-yl)ethane-1,2-diamine dihydrochloride]
inhibition at 330 µM ([1]; 24 h): 31.4 ± 0.5%

Structure (SMILES): c1[nH]nc(NCCNc2n[nH]cc2C2CC2)c1C1CC1 [Compound 1v, N^1,N^2-bis(4-Cyclopropyl-1H-pyrazol-3-yl)ethane-1,2-diamine bishydrochloride]
inhibition at 330 µM ([1]; 24 h): 15.3 ± 2.9%

inhibition at 330 µM [1, 7]: 7.3 ± 10.4%
Structure (SMILES): Cc1cc(NCC(=O)Nc2cc(C)[nH]n2)n[nH]1 [Compound 1w, N-(5-Methyl-1H-pyrazol-3-yl)-2-(5-methyl-1H-pyrazol-3-ylamino)acetamide]
